Assay results published in patent US10952945B2, “Formulations containing an extract of Echinacea and linoleic acid derivatives” (DR. AUGUST WOLFF GMBH & CO. KG ARZNEIMITTEL, priority 2015, dated 2021).

Molecular target: TRPV1 (Homo sapiens, UniProt Q8NER1)
Assay: Determination of TRPV1 agonistic activity (MTT cell viability of 293 T-VR1 cells)
Procedure: 2×10^4 293 T-VR1 cells (or parentale 293T cells as control) are cultivated in 96-well microtiter plates (Costar, Cambridge, Mass.) in 200 μL Dulbecco's Modified Eagle's Medium (DMEM), which also contains 10% foetal calf serum and 1% antibiotics (penicillin/streptomycin). The cells are incubated for 6 h with the test substances or the controls (capsaicin, TRPV1 agonist (1 μM); capsazepine, TRPV1 antagonist (10 μM); or capsaicin (1 μM) and capsazepine (10 μM)). Then, cell viability is determined.
The cytotoxic effect of the test substances was determined using the MTT (3-[4,5-dimethylthiazol-2-yl]-2,5-diphenyltetrazolium bromide) assay method. For this, 50 μL of a solution of MTT in DMEM (5 mg/mL) were added to each well. These were then incubated in the dark for 4 h at 37° C. The reaction was stopped, the residue was removed and 100 μL DMSO were added to each well. Incubation continued for 10 min with gentle shaking. Then the absorption at 550 nm was measured with a TECAN GENios Pro Plate Reader (Tecan Group Ltd., Switzerland). […] The determination was performed in triplicate.

TRPV1, sequence (Q8NER1 whole entry, species assumed): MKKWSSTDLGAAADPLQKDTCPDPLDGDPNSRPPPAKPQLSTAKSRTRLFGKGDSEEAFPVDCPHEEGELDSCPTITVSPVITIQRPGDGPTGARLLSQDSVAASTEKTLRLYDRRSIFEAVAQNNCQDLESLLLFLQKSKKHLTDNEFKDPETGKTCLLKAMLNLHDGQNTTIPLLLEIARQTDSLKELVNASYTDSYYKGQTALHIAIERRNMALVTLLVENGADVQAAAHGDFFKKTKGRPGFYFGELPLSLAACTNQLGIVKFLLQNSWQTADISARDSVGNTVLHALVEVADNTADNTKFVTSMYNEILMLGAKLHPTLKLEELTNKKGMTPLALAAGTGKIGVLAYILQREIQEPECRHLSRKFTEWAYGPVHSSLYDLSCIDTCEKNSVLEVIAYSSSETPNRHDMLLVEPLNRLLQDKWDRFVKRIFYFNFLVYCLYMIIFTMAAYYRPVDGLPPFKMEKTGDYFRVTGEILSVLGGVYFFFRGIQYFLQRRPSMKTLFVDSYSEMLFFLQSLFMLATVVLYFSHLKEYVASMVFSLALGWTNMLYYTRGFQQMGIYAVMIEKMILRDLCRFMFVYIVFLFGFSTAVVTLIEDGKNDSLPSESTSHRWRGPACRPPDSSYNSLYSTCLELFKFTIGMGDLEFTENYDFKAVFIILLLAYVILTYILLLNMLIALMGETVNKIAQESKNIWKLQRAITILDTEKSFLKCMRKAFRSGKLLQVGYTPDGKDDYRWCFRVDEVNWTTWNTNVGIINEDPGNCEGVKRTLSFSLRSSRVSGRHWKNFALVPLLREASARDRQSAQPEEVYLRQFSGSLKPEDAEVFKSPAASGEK

Row | Structure (SMILES) | cell viability (FIG. 1 experiment, capsaicin 1 μM, 293 T-VR1 cells, 6 h, percentage of vehicle control) [%] | cell viability (FIG. 2 experiment, capsaicin positive control) [%] | cell viability (FIG. 1 experiment, capsaicin (1 μM) and capsazepine (10 μM) together) [%] | cell viability (FIG. 2 experiment, capsaicin together with capsazepine) [%] | cell viability (human, 6 h, 10 μM) [%]
1 | COc1cc(CNC(=O)CCCC/C=C/C(C)C)ccc1O [capsaicin] | 54.9 | 70.6 |  |  | 
2 | Oc1cc2c(cc1O)CN(C(=S)NCCc1ccc(Cl)cc1)CCC2 [capsazepine] |  |  | 101.3 | 104.4 | 106.1
